Results taken from article PMC5951806, “Rapid labelling and covalent inhibition of intracellular native proteins using ligand-directed N-acyl-N-alkyl sulfonamide” (Nature Communications, 2018).

What was measured:
Test in all cases: TMT LC-MSMS of 11-labelled proteins
Type in all cases: cell-based
[1] = molecular target: ATP synthase subunit beta, mitochondrial (ATP5B) (Homo sapiens, UniProt P06576)
[2] = molecular target: glyceraldehyde-3-phosphate dehydrogenase (GAPDH) (Homo sapiens, UniProt P04406)
Chain of glyceraldehyde-3-phosphate dehydrogenase (GAPDH) (P04406 whole entry): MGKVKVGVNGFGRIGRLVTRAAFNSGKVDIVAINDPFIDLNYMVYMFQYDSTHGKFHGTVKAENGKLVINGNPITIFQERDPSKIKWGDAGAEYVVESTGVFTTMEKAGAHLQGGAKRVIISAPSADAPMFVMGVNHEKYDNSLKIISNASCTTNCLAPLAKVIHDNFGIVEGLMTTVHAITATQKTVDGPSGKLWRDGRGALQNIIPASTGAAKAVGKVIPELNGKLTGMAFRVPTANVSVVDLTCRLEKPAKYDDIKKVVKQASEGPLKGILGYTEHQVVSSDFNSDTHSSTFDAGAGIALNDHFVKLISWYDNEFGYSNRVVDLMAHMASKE

[3] = molecular target: Fatty acid synthase (FASN) (Homo sapiens, UniProt P49327)
Chain of Fatty acid synthase (FASN) (P49327 whole entry): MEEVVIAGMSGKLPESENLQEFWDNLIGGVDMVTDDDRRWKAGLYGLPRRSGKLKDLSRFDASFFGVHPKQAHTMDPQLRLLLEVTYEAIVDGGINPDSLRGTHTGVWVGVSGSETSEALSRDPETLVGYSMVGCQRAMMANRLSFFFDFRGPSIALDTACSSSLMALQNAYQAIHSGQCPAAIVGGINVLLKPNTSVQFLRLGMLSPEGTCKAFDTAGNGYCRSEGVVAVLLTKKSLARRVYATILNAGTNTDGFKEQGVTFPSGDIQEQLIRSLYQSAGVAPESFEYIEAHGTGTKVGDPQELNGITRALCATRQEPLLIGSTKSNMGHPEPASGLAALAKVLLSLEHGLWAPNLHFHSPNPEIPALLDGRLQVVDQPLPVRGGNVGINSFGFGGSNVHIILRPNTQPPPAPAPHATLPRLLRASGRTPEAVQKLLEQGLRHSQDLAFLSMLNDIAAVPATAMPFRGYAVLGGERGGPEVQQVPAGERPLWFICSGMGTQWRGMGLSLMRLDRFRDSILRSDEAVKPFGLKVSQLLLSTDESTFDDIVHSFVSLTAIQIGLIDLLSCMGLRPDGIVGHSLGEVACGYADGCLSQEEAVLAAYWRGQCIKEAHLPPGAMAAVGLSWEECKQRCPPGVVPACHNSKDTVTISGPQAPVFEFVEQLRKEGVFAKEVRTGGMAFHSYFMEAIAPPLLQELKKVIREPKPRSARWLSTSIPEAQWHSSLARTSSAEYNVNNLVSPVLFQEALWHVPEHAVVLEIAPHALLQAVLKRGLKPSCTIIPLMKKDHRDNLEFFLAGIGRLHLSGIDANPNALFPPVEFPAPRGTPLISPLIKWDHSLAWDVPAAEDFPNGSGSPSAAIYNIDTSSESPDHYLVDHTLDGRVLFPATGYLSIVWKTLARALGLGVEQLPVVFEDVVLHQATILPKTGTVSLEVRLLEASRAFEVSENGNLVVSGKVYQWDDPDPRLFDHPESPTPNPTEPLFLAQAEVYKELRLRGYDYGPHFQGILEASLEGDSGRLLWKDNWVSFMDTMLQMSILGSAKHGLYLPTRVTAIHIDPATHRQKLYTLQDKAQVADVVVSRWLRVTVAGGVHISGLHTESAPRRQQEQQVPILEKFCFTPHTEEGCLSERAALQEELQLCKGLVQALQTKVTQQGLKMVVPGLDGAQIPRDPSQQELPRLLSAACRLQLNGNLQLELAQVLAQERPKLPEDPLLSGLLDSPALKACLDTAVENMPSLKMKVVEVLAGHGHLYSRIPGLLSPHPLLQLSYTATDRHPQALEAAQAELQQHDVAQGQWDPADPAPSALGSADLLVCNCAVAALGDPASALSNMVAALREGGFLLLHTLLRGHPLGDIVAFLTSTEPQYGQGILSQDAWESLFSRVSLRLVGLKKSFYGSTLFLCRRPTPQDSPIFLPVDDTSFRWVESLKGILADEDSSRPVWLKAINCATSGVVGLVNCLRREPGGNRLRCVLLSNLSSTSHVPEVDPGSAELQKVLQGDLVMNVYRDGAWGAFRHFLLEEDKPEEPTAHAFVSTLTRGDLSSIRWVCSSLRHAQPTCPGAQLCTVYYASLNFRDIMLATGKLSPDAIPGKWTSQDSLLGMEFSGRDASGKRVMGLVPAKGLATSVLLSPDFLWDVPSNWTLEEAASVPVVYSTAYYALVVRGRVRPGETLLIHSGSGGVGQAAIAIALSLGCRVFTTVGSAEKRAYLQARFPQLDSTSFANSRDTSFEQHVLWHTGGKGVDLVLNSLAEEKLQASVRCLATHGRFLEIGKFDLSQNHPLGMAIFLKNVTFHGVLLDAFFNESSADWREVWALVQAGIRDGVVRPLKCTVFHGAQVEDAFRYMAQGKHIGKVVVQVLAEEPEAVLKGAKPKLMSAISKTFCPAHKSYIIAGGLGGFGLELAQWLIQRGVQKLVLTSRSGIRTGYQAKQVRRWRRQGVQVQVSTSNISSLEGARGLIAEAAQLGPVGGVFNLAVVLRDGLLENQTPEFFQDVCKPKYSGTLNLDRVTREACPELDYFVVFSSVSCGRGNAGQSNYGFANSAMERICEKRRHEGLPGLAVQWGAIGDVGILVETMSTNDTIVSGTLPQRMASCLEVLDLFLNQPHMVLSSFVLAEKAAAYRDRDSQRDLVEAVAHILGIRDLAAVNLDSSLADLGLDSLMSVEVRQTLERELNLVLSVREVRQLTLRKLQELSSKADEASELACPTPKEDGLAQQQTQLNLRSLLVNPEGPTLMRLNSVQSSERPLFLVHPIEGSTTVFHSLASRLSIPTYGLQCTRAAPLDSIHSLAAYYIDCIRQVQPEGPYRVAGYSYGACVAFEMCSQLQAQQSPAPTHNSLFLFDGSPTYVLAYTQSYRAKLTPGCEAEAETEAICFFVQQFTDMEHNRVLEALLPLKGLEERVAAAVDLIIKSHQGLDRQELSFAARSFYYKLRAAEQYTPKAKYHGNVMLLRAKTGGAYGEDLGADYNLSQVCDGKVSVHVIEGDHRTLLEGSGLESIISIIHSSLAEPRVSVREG

[4] = molecular target: T1, dehydrogenase/reductase SDR family member 2, mitochondrial (DHRS2) (Homo sapiens, UniProt Q13268)
T1 sequence (Q13268 24-280): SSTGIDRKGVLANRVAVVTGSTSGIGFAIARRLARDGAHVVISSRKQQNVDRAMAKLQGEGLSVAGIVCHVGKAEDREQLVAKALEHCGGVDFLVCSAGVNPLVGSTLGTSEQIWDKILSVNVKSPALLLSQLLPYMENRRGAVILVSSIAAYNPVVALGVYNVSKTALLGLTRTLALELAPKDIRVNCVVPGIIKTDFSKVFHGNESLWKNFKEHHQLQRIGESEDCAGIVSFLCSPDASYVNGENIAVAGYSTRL

Serum albumin (ALB) = Serum albumin (ALB) (Homo sapiens, UniProt P02768)
Chain of Serum albumin (ALB) (P02768 25-609): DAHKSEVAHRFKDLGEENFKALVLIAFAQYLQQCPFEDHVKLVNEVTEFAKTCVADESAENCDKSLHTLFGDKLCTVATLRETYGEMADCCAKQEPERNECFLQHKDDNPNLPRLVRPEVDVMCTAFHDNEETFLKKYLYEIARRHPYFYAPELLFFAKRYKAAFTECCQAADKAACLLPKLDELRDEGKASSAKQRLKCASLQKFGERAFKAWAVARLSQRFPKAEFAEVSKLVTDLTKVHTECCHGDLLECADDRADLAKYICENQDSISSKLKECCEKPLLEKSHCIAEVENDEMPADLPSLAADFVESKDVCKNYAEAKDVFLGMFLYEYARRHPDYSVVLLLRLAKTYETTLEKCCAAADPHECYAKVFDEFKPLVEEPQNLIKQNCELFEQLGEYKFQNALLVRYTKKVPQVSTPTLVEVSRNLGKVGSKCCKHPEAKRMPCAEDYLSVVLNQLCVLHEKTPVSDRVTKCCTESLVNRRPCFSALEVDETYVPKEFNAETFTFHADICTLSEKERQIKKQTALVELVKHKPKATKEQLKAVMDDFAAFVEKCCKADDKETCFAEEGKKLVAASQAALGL

[5] = sheet Merged, SKBR3 cells, 11 0.5 µM 3 h vs DMSO
[6] = sheet Merged, SKBR3 cells, 11 0.5 µM 3 h vs with PU-H71 10 µM
[7] = sheet Exp1, SKBR3 cells, 11 0.5 µM 3 h vs DMSO
[8] = sheet Exp1, SKBR3 cells, 11 0.5 µM 3 h vs with PU-H71 10 µM

CC(=O)Oc1ccc2c(c1)Oc1cc(OC(C)=O)ccc1C21OC(=O)c2cc(C(=O)NCCOCCOCCNC(=O)CCCC(=O)N(CC#N)S(=O)(=O)c3ccc(C(=O)NCCCn4c(Sc5cc6c(cc5I)OCO6)nc5c(N)ncnc54)cc3)ccc21 [compound 11]
Abundance Ratio: (11) / (11 with PU-H71) ([1]; sheet Exp2, ATP5B): 0.866 | Abundance Ratio: (11) / (DMSO) ([1]; sheet Exp2, ATP5B): 1.928 | Abundances (Grouped): 11 ([1]; sheet Exp2, ATP5B): 141.5 | Abundances (Grouped): 11 with PU-H71 ([1]; sheet Exp2, ATP5B, with PU-H71): 163.4 | Abundance Ratio: (11) / (DMSO) [1, 5]: 1.928 | Abundance Ratio: (11) / (11 with PU-H71) [1, 6]: 0.866 | Abundance Ratio: (11) / (11 with PU-H71) ([2]; Exp3, GAPDH): 0.73 | Abundance Ratio: (11) / (DMSO) ([2]; Exp3, GAPDH): 1.944 | Abundances (Grouped): 11 ([2]; Exp3, GAPDH): 248.2 | Abundances (Grouped): 11 with PU-H71 ([2]; Exp3, GAPDH): 340 | Abundance Ratio: (11) / (DMSO) [2, 7]: 2.11 | Abundance Ratio: (11) / (11 with PU-H71) [2, 8]: 0.674 | Abundance Ratio: (11) / (11 with PU-H71) ([2]; sheet Exp2, GAPDH): 0.789 | Abundance Ratio: (11) / (DMSO) ([2]; sheet Exp2, GAPDH): 3.189 | Abundances (Grouped): 11 ([2]; sheet Exp2, GAPDH): 133 | Abundances (Grouped): 11 with PU-H71 ([2]; sheet Exp2, GAPDH): 168.6 | Abundance Ratio: (11) / (DMSO) [2, 5]: 2.267 | Abundance Ratio: (11) / (11 with PU-H71) [2, 6]: 0.732 | Abundance Ratio: (11) / (11 with PU-H71) ([3]; Exp3, FASN): 0.917 | Abundance Ratio: (11) / (DMSO) ([3]; Exp3, FASN): 4.35 | Abundances (Grouped): 11 ([3]; Exp3, FASN): 3505 | Abundances (Grouped): 11 with PU-H71 ([3]; Exp3, FASN): 3823.4 | Abundance Ratio: (11) / (DMSO) [3, 7]: 4.652 | Abundance Ratio: (11) / (11 with PU-H71) [3, 8]: 0.931 | Abundance Ratio: (11) / (11 with PU-H71) ([3]; sheet Exp2, FASN): 0.929 | Abundance Ratio: (11) / (DMSO) ([3]; sheet Exp2, FASN): 4.46 | Abundances (Grouped): 11 ([3]; sheet Exp2, FASN): 3656.7 | Abundances (Grouped): 11 with PU-H71 ([3]; sheet Exp2, FASN): 3935.1 | Abundance Ratio: (11) / (DMSO) [3, 5]: 4.491 | Abundance Ratio: (11) / (11 with PU-H71) [3, 6]: 0.931 | Abundance Ratio: (11) / (11 with PU-H71) ([4]; Exp3, DHRS2): 0.644 | Abundance Ratio: (11) / (DMSO) ([4]; Exp3, DHRS2): 2.859 | Abundances (Grouped): 11 ([4]; Exp3, DHRS2): 223.6 | Abundances (Grouped): 11 with PU-H71 ([4]; Exp3, DHRS2): 347.1 | Abundance Ratio: (11) / (DMSO) [4, 7]: 3.162 | Abundance Ratio: (11) / (11 with PU-H71) [4, 8]: 0.783 | Abundance Ratio: (11) / (11 with PU-H71) ([4]; sheet Exp2, DHRS2): 0.6 | Abundance Ratio: (11) / (DMSO) ([4]; sheet Exp2, DHRS2): 3.132 | Abundances (Grouped): 11 ([4]; sheet Exp2, DHRS2): 156.3 | Abundances (Grouped): 11 with PU-H71 ([4]; sheet Exp2, DHRS2): 260.6 | Abundance Ratio: (11) / (DMSO) [4, 5]: 2.859 | Abundance Ratio: (11) / (11 with PU-H71) [4, 6]: 0.644 | Abundance Ratio: (11) / (11 with PU-H71) (Serum albumin (ALB); Exp3, ALB): 0.706 | Abundance Ratio: (11) / (DMSO) (Serum albumin (ALB); Exp3, ALB): 1.152 | Abundances (Grouped): 11 (Serum albumin (ALB); Exp3, ALB): 132.6 | Abundances (Grouped): 11 with PU-H71 (Serum albumin (ALB); Exp3, ALB): 187.7 | Abundance Ratio: (11) / (DMSO) (Serum albumin (ALB); [7]): 0.969 | Abundance Ratio: (11) / (11 with PU-H71) (Serum albumin (ALB); [8]): 0.846 | Abundance Ratio: (11) / (11 with PU-H71) (Serum albumin (ALB); sheet Exp2, ALB): 0.796 | Abundance Ratio: (11) / (DMSO) (Serum albumin (ALB); sheet Exp2, ALB): 0.967 | Abundances (Grouped): 11 (Serum albumin (ALB); sheet Exp2, ALB): 219.9 | Abundances (Grouped): 11 with PU-H71 (Serum albumin (ALB); sheet Exp2, ALB): 276.3 | Abundance Ratio: (11) / (DMSO) (Serum albumin (ALB); [5]): 0.969 | Abundance Ratio: (11) / (11 with PU-H71) (Serum albumin (ALB); [6]): 0.846
